Measurements reported in PubChem BioAssay (NCI).
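Method: 48-hour compound exposure of cells in 96-well plates, five concentrations, linear interpolation of endpoints. GI50 is the concentration that inhibits growth by half. Definition used: TGI = concentration required for complete inhibition of growth.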

Tests used:
Experiment in all cases: DTP human tumour cell line panel, 48 h
786-0 renal = tested on: 786-0 renal
A498 renal = tested on: A498 renal
A549 NSCLC = tested on: A549 NSCLC
ACHN renal = tested on: ACHN renal
BT-549 breast = tested on: BT-549 breast
CAKI-1 renal = tested on: CAKI-1 renal
CCRF-CEM leukemia = tested on: CCRF-CEM leukemia
COLO 205 colon = tested on: COLO 205 colon
DU-145 prostate = tested on: DU-145 prostate
EKVX NSCLC = tested on: EKVX NSCLC
HCC-2998 colon = tested on: HCC-2998 colon
HCT-116 colon = tested on: HCT-116 colon
HCT-15 colon = tested on: HCT-15 colon
HL-60(TB) leukemia = tested on: HL-60(TB) leukemia
HOP-62 NSCLC = tested on: HOP-62 NSCLC
HOP-92 NSCLC = tested on: HOP-92 NSCLC
HS 578T breast = tested on: HS 578T breast
HT29 colon = tested on: HT29 colon
IGROV1 ovarian = tested on: IGROV1 ovarian
K-562 leukemia = tested on: K-562 leukemia
KM12 colon = tested on: KM12 colon
LOX IMVI melanoma = tested on: LOX IMVI melanoma
M14 melanoma = tested on: M14 melanoma
MALME-3M melanoma = tested on: MALME-3M melanoma
MCF7 breast = tested on: MCF7 breast
MDA-MB-231 breast = tested on: MDA-MB-231 breast
MDA-MB-435 = tested on: MDA-MB-435
MDA-MB-468 breast = tested on: MDA-MB-468 breast
MOLT-4 leukemia = tested on: MOLT-4 leukemia
NCI-H226 lung = tested on: NCI-H226 lung
NCI-H23 lung = tested on: NCI-H23 lung
NCI-H460 lung = tested on: NCI-H460 lung
NCI-H522 lung = tested on: NCI-H522 lung
NCI/ADR-RES ovarian = tested on: NCI/ADR-RES ovarian
OVCAR-3 ovarian = tested on: OVCAR-3 ovarian
OVCAR-4 ovarian = tested on: OVCAR-4 ovarian
OVCAR-5 ovarian = tested on: OVCAR-5 ovarian
OVCAR-8 ovarian = tested on: OVCAR-8 ovarian
PC-3 prostate = tested on: PC-3 prostate
RPMI-8226 leukemia = tested on: RPMI-8226 leukemia
RXF 393 renal = tested on: RXF 393 renal
SF-268 CNS = tested on: SF-268 CNS
SF-295 CNS = tested on: SF-295 CNS
SF-539 CNS = tested on: SF-539 CNS
SK-MEL-2 melanoma = tested on: SK-MEL-2 melanoma
SK-MEL-28 melanoma = tested on: SK-MEL-28 melanoma
SK-MEL-5 melanoma = tested on: SK-MEL-5 melanoma
SN12C renal = tested on: SN12C renal
SNB-19 CNS = tested on: SNB-19 CNS
SNB-75 CNS = tested on: SNB-75 CNS
SR leukemia = tested on: SR leukemia
SW-620 colon = tested on: SW-620 colon
T-47D breast = tested on: T-47D breast
TK-10 renal = tested on: TK-10 renal
U251 CNS = tested on: U251 CNS
UACC-257 melanoma = tested on: UACC-257 melanoma
UACC-62 melanoma = tested on: UACC-62 melanoma
UO-31 renal = tested on: UO-31 renal

**Q.** Which results are given for `O=C(NO)c1ccc(-c2nc3ccc4[nH]ncc4c3c3c2CCCC3)cc1`?
**A.** GI50 (786-0 renal): 307 nM; TGI (786-0 renal): 1210 nM; GI50 (A498 renal): 254 nM; TGI (A498 renal): 2640 nM; GI50 (A549 NSCLC): 671 nM; TGI (A549 NSCLC): > 100000 nM; GI50 (ACHN renal): 193 nM; TGI (ACHN renal): 5960 nM; GI50 (BT-549 breast): 187 nM; TGI (BT-549 breast): 680 nM; GI50 (CAKI-1 renal): 260 nM; TGI (CAKI-1 renal): 6810 nM; GI50 (CCRF-CEM leukemia): 361 nM; TGI (CCRF-CEM leukemia): > 100000 nM; GI50 (COLO 205 colon): 255 nM; TGI (COLO 205 colon): 1480 nM; GI50 (DU-145 prostate): 407 nM; TGI (DU-145 prostate): > 34900 nM; GI50 (EKVX NSCLC): 480 nM; TGI (EKVX NSCLC): 3260 nM; GI50 (HCC-2998 colon): 300 nM; TGI (HCC-2998 colon): 1390 nM; GI50 (HCT-116 colon): 119 nM; TGI (HCT-116 colon): 33800 nM; GI50 (HCT-15 colon): 250 nM; TGI (HCT-15 colon): 8570 nM; GI50 (HL-60(TB) leukemia): 339 nM; TGI (HL-60(TB) leukemia): 2980 nM; GI50 (HOP-62 NSCLC): 253 nM; TGI (HOP-62 NSCLC): 5210 nM; GI50 (HOP-92 NSCLC): 426 nM; TGI (HOP-92 NSCLC): 6110 nM; GI50 (HS 578T breast): 191 nM; TGI (HS 578T breast): 1300 nM; GI50 (HT29 colon): 455 nM; TGI (HT29 colon): 9840 nM; GI50 (IGROV1 ovarian): 318 nM; TGI (IGROV1 ovarian): 3110 nM; GI50 (K-562 leukemia): 495 nM; TGI (K-562 leukemia): > 100000 nM; GI50 (KM12 colon): 391 nM; TGI (KM12 colon): 13700 nM; GI50 (LOX IMVI melanoma): 306 nM; TGI (LOX IMVI melanoma): 1320 nM; GI50 (M14 melanoma): 415 nM; TGI (M14 melanoma): 1780 nM; GI50 (MALME-3M melanoma): 513 nM; TGI (MALME-3M melanoma): 1730 nM; GI50 (MCF7 breast): 344 nM; TGI (MCF7 breast): 3570 nM; GI50 (MDA-MB-231 breast): 350 nM; TGI (MDA-MB-231 breast): 1490 nM; GI50 (MDA-MB-435): 340 nM; TGI (MDA-MB-435): 1490 nM; GI50 (MDA-MB-468 breast): 97.9 nM; TGI (MDA-MB-468 breast): 279 nM; GI50 (MOLT-4 leukemia): 244 nM; TGI (MOLT-4 leukemia): 942 nM; GI50 (NCI-H226 lung): 296 nM; TGI (NCI-H226 lung): 3090 nM; GI50 (NCI-H23 lung): 316 nM; TGI (NCI-H23 lung): 1180 nM; GI50 (NCI-H460 lung): 486 nM; TGI (NCI-H460 lung): 2490 nM; GI50 (NCI-H522 lung): 154 nM; TGI (NCI-H522 lung): 990 nM; GI50 (NCI/ADR-RES ovarian): 1030 nM; TGI (NCI/ADR-RES ovarian): 21000 nM; GI50 (OVCAR-3 ovarian): 377 nM; TGI (OVCAR-3 ovarian): 11000 nM; GI50 (OVCAR-4 ovarian): 706 nM; TGI (OVCAR-4 ovarian): 6380 nM; GI50 (OVCAR-5 ovarian): 479 nM; TGI (OVCAR-5 ovarian): 3930 nM; GI50 (OVCAR-8 ovarian): 300 nM; TGI (OVCAR-8 ovarian): 13500 nM; GI50 (PC-3 prostate): 424 nM; TGI (PC-3 prostate): > 67200 nM; GI50 (RPMI-8226 leukemia): 1650 nM; TGI (RPMI-8226 leukemia): > 44600 nM; GI50 (RXF 393 renal): 103 nM; TGI (RXF 393 renal): 508 nM; GI50 (SF-268 CNS): 298 nM; TGI (SF-268 CNS): 1600 nM; GI50 (SF-295 CNS): 880 nM; TGI (SF-295 CNS): 9760 nM; GI50 (SF-539 CNS): 168 nM; TGI (SF-539 CNS): 455 nM; GI50 (SK-MEL-2 melanoma): 247 nM; TGI (SK-MEL-2 melanoma): 792 nM; GI50 (SK-MEL-28 melanoma): 299 nM; TGI (SK-MEL-28 melanoma): 1030 nM; GI50 (SK-MEL-5 melanoma): 240 nM; TGI (SK-MEL-5 melanoma): 1020 nM; GI50 (SN12C renal): 281 nM; TGI (SN12C renal): 3390 nM; GI50 (SNB-19 CNS): 288 nM; TGI (SNB-19 CNS): 1740 nM; GI50 (SNB-75 CNS): 207 nM; TGI (SNB-75 CNS): 875 nM; GI50 (SR leukemia): 117 nM; GI50 (SW-620 colon): 245 nM; TGI (SW-620 colon): > 77900 nM; GI50 (T-47D breast): 196 nM; TGI (T-47D breast): 1750 nM; GI50 (TK-10 renal): 261 nM; TGI (TK-10 renal): 10400 nM; GI50 (U251 CNS): 287 nM; TGI (U251 CNS): 4970 nM; GI50 (UACC-257 melanoma): 1290 nM; TGI (UACC-257 melanoma): > 23200 nM; GI50 (UACC-62 melanoma): 237 nM; TGI (UACC-62 melanoma): 1450 nM; GI50 (UO-31 renal): 599 nM; TGI (UO-31 renal): 8480 nM
